Values joined by “and” are separate entries in the source; they are usually repeats but may differ in a detail not shown here. Equal values may be shown once. Read-outs that look alike come from different tables or passages of the source.
What was measured:
[1] = Mouse plasma and brain pharmacokinetics, IV administration; format: in vivo; conditions: 5 mg/kg IV; for concentration at 0.25 h / concentration at 1 h / concentration at 3 h: male, C57BL/6, mouse, intravenous, 5 mg/kg
Experimental: IACUC-approved protocols and animal welfare regulations outlined in the “Guide for the Care and Use of Laboratory Animals” were both followed during the pharmacokinetic evaluation of all compounds. In vivo analysis was performed by Pharmaron (IP administration, Irvine, CA) and Sai Life (IV administration, Hinjewadi Pune, Pune, India).
Nine male C57BL/6 mice were administered intravenously (IV) with solution formulation of prodrug at 5 mg/kg dose (5 mL/kg) in 5% […], 5% Solutol HS-15, and 90% saline. Blood samples (∼60 μL) were collected under light isoflurane anesthesia from a set of three mice at 0.25, 1, and 3 h. Plasma was harvested by centrifugation of blood and stored at −70 ± 10 °C until analysis. Immediately after the collection of blood, brain samples were collected from each mouse at respective time points. Brain samples were homogenized using ice-cold phosphate-buffered saline (pH 7.4), and homogenates were stored below −70 ± 10 °C until analysis. The total homogenate volume was 3 times that of the brain weight. The plasma and brain concentration–time data of compounds 2i were used for the pharmacokinetic analysis. Plasma and brain samples were quantified by the fit-for-purpose LC-MS/MS method (LLOQ: 2.06 ng/mL for plasma and 5.16 ng/mL for brain).

Tsc1^± mice = assay: Acute epileptic mouse model, EEG recordings of seizures; format: in vivo
Experimental: All experiments were conducted in agreement with the requirements of the European Directive 2010/63/EU. Mice were housed in ventilated, light-tight, sound-isolated chambers under a standard 12:12 light/dark cycle (light on at […]) with food and water available ad libitum. C57BL/6J wild-type (Tsc1^+/+) females from Janvier Laboratories (France) were crossed with heterozygote Tsc1^± male mice with the genetic background B6;129S4-Tsc1^tm1.1Djk/Nci. The genotyping of pups issuing from this cross-breeding was performed on tail tissue samples at postnatal day P9. The study was conducted in Tsc1^± male mice at P14–16. Pups from at least three deliveries for each condition were studied to minimize the potential sampling bias.
The DQP derivative 2i was diluted in DMSO at a concentration of 100 mM before being added to 100 to 150 μL of saline solution and intraperitoneally injected in mice. Intraperitoneal injection was administered during the EEG recordings at three different concentrations: 7, 14, and 28 mg/kg to estimate the dose–response relationship.
Experiments were performed on postnatal days of P14 and P16 male Tsc1^± mice. Surgery was performed under isoflurane anesthesia and lidocaine analgesia. During recordings, the head was fixed to the frame of a stereotaxic apparatus by attached bars; animals were surrounded by a cotton nest and heated via a thermal pad (36.6–37.7 °C). A silver chloride reference electrode was placed in the cerebellum. EEG recordings were performed with nonanaesthetized head-restrained Tsc1^± mice. […] Recordings were analyzed offline using Clampfit (Molecular Devices, San Jose) and Origin (MicroCal, Northampton, MA) software. […] During EEG recordings, animals were monitored visually to determine the behavioral correlates of each electrographic epileptic discharge. […]

O=C(O)CC(F)(F)C(=O)N1N=C(c2c(-c3ccc(Cl)cc3)c3ccccc3[nH]c2=O)CC1c1ccc(Cl)cc1 (stereo not drawn) [2i]
drop of plasma levels at 1 h [1]: ~10 fold | brain calculated concentration, individual (Group 1-3) ([1]; 0.25 h): 17.9 ng/g and 13.1 ng/g | brain calculated concentration, Mean ([1]; 0.25 h (15 min)): 14 ng/g | plasma concentration, individual (Group 1-3) ([1]; 0.25 hr): 585 ng/mL and 766 ng/mL | brain calculated concentration, individual (Group 1-3) ([1]; 1 h): BLQ and 6.18 ng/g | plasma concentration, individual (Group 1-3) ([1]; 1 hr): 41.2 ng/mL and 101 ng/mL and 68.7 ng/mL | brain calculated concentration, individual (Group 1-3) ([1]; 3 h): BLQ | brain levels at 3 h ([1]; 3 h): BLQ | plasma concentration, individual (Group 1-3) ([1]; 3 hr): 5.97 ng/mL and 10.2 ng/mL | concentration at 0.25 h ([1]; brain, 0.25 h (15 min), read-out: brain calculated concentration, Mean): 13.9 ng/g | concentration at 0.25 h ([1]; brain, 0.25 h, read-out: brain calculated concentration, individual (Group 1-3)): 10.8 ng/g | concentration at 1 h ([1]; brain, 1 h, BLQ assumed to be 0.0, read-out: brain calculated concentration, Mean): 4.13 ng/g | concentration at 1 h ([1]; brain, 1 h, read-out: brain calculated concentration, individual (Group 1-3)): 6.21 ng/g | concentration at 0.25 h ([1]; plasma, 0.25 hr (15 min), read-out: plasma concentration, Mean): 642 ng/mL | concentration at 0.25 h ([1]; plasma, 0.25 hr, read-out: plasma concentration, individual (Group 1-3)): 575 ng/mL | concentration at 1 h ([1]; plasma, 1 hr, read-out: plasma concentration, Mean): 70.4 ng/mL | concentration at 3 h ([1]; plasma, 3 hr, read-out: plasma concentration, Mean): 7.64 ng/mL | concentration at 3 h ([1]; plasma, 3 hr, read-out: plasma concentration, individual (Group 1-3)): 6.78 ng/mL | effect on spontaneous electrographic seizures (Tsc1^± mice; 14 mg/kg IP, male Tsc1^± mice P14–16, neocortical layers 2/3 and 4): significantly reduced spontaneous electrographic seizures | effect on epileptic events (Tsc1^± mice; 28 mg/kg IP, male Tsc1^± mice P14–16): epileptic events stopped immediately | effect on number of epileptic events (Tsc1^± mice; murine model of TSC-induced epilepsy, abstract): significantly reduced the number of epileptic events

Source: PMC10485906, “Development of a Dihydroquinoline–Pyrazoline GluN2C/2D-Selective Negative Allosteric Modulator of the N-Methyl-D-aspartate Receptor” (ACS Chemical Neuroscience, 2023)
